Data on 27 compounds can be found in patent US11077115B2, “Rorgamma modulators and uses thereof” (Genfit, priority 2017, dated 2021).

For orientation: melting point means the temperature, or range, at which the solid turns liquid.

Where a name gives a salt, the structure may show the parent alone.

The compound `Cc1ccc(C(NC(=O)Cc2cnc(N3CCS(=O)(=O)CC3)nc2)c2ccc(C)o2)c(N2CC3CC3C2)c1` (stereo not drawn) (as salt: HCl) [Cpd. 36, N-[(2-{3-azabicyclo[3.1.0]hexan-3-yl}-4-methylphenyl)(5-methylfuran-2-yl)methyl]-2-[2-(1,1-dioxo-1-thiomorpholin-4-yl)pyrimidin-5-yl]acetamide] gave a melting point of 105 °C.

Take `COc1ccc(C(NC(=O)Cc2ccc(N3CCS(=O)(=O)CC3)c(C)c2)c2ccc(C)o2)c(N2CC3CC3C2)c1` (stereo not drawn) (as salt: HCl) [Cpd. 16, N-[(2-{3-azabicyclo[3.1.0]hexan-3-yl}-4-methoxyphenyl)(5-methylfuran-2-yl)methyl]-2-[4-(1,1-dioxo-1-thiomorpholin-4-yl)-3-methylphenyl]acetamide]: the melting point is 103 °C.

On to `O=C(Cc1ccc(N2CCS(=O)(=O)CC2)cc1)NC(c1ccccc1)c1ccccc1N1CCCCC1` (stereo not drawn) (as salt: HCl) [Cpd. 1, 2-[4-(1,1-dioxo-1-thiomorpholin-4-yl)phenyl]-N-{phenyl[2-(piperidin-1-yl)phenyl]methyl}acetamide], for which the melting point amounted to 202 °C.

In the case of `Cc1ccc(C(NC(=O)Cc2ccc(N3CCS(=O)(=O)CC3)cc2C)c2ccc(C)o2)c(N2CCCCC2)c1` (stereo not drawn) (as salt: HCl) [Cpd. 18, 2-[4-(1,1-dioxo-1-thiomorpholin-4-yl)-2-methylphenyl]-N-{[4-methyl-2-(piperidin-1-yl)phenyl](5-methylfuran-2-yl)methyl}acetamide], the melting point turned out to be 96 °C.

Take `Cc1ccc(C(NC(=O)C2(c3cnc(N4CCS(=O)(=O)CC4)nc3)CC2)c2ccc(Cl)cc2Cl)o1` (stereo not drawn) (as salt: HCl) [Cpd. 54, N-[(2,4-dichlorophenyl)(5-methylfuran-2-yl)methyl]-1-[2-(1,1-dioxo-1-thiomorpholin-4-yl)pyrimidin-5-yl]cyclopropane-1-carboxamide]: the melting point was 145 °C.

Compound `Cc1ccc(C(NC(=O)C2(c3ccc(N4CCS(=O)(=O)CC4)cc3)CC2)c2ccc(C)o2)c(N2CCCCC2)c1` (stereo not drawn) (as salt: HCl) [Cpd. 32, 1-[4-(1,1-dioxo-1-thiomorpholin-4-yl)phenyl]-N-{[4-methyl-2-(piperidin-1-yl)phenyl](5-methylfuran-2-yl)methyl}cyclopropane-1-carboxamide] had a melting point of 98 °C.

Consider `Cc1ccc(C(NC(=O)C2(c3ccc(N4CCS(=O)(=O)CC4)cn3)CC2)c2ccc(C)o2)c(C)c1` (stereo not drawn) (as salt: HCl) [Cpd. 73, N-[(2,4-dimethylphenyl)(5-methylfuran-2-yl)methyl]-1-[5-(1,1-dioxo-1-thiomorpholin-4-yl)pyridin-2-yl]cyclopropane-1-carboxamide], for which the melting point is 71 °C.

Compound `COCc1ccc(CC(=O)NC(c2ccc(C)o2)c2ccc(C)cc2N2CCCCC2)cc1N1CCS(=O)(=O)CC1` (stereo not drawn) (as salt: HCl) [Cpd. 62, 2-[3-(1,1-dioxo-1-thiomorpholin-4-yl)-4-(methoxymethyl)phenyl]-N-{[4-methyl-2-(piperidin-1-yl)phenyl](5-methylfuran-2-yl)methyl}acetamide] returned a melting point of 87 °C.

As for `Cc1ccc(C(NC(=O)Cc2cc(N3CCS(=O)(=O)CC3)ccc2C)c2ccccc2)c(N2CCOCC2)c1` (stereo not drawn) (as salt: HCl) [Cpd. 7, 2-[5-(1,1-dioxo-1-thiomorpholin-4-yl)-2-methylphenyl]-N-{[4-methyl-2-(morpholin-4-yl)phenyl](phenyl)methyl}acetamide], the melting point turned out to be 219 °C.

`Cc1ccc(C(NC(=O)Cc2cnc(N3CCS(=O)(=O)CC3)nc2C)c2ccc(C)o2)c(N2CCCCC2)c1` (stereo not drawn) (as salt: HCl) [Cpd. 38, 2-[2-(1,1-dioxo-1-thiomorpholin-4-yl)-4-methylpyrimidin-5-yl]-N-{[4-methyl-2-(piperidin-1-yl)phenyl](5-methylfuran-2-yl)methyl}acetamide] came in with a melting point of 99 °C.

On to `Cc1ccc(C(NC(=O)Cc2ccc(CO)c(N3CCS(=O)(=O)CC3)c2)c2ccc(C)o2)c(N2CCCCC2)c1` (stereo not drawn) (as salt: HCl) [Cpd. 63, 2-[3-(1,1-dioxo-1-thiomorpholin-4-yl)-4-(hydroxymethyl)phenyl]-N-{[4-methyl-2-(piperidin-1-yl)phenyl](5-methylfuran-2-yl)methyl}acetamide], for which the melting point was 100 °C.

In turn, `Cc1ccc(C(NC(=O)Cc2cc(N3CCS(=O)(=O)CC3)ccc2C)c2ccc(C)o2)c(N2CCCCC2)c1` (stereo not drawn) (as salt: HCl) [Cpd. 5, 2-[5-(1,1-dioxo-1-thiomorpholin-4-yl)-2-methylphenyl]-N-{[4-methyl-2-(piperidin-1-yl)phenyl](5-methylfuran-2-yl)methyl}acetamide] gave a melting point of 101 °C.

Turning to `Cc1ccc(C(NC(=O)C2(c3ccc(N4CCS(=O)(=O)CC4)cc3)CCC2)c2ccc(C)o2)c(C)c1` (stereo not drawn) (as salt: HCl) [Cpd. 41, N-[(2,4-dimethylphenyl)(5-methylfuran-2-yl)methyl]-1-[4-(1,1-dioxo-1-thiomorpholin-4-yl)phenyl]cyclobutane-1-carboxamide], the melting point worked out at 79 °C.

Regarding `Cc1ccc(C(NC(=O)C2(c3ccc(N4CCS(=O)(=O)CC4)cc3)CC2)c2ccc(C)o2)c(C)c1` (stereo not drawn) (as salt: HCl) [Cpd. 31, N-[(2,4-dimethylphenyl)(5-methylfuran-2-yl)methyl]-1-[4-(1,1-dioxo-1-thiomorpholin-4-yl)phenyl]cyclopropane-1-carboxamide], the melting point amounted to 75 °C.

Take `Cc1ccc(C(NC(=O)Cc2ccc(N3CCS(=O)(=O)CC3)nc2)c2ccc(C)o2)c(N2CCCCC2)c1` (stereo not drawn) (as salt: HCl) [Cpd. 27, 2-[6-(1,1-dioxo-1-thiomorpholin-4-yl)pyridin-3-yl]-N-{[4-methyl-2-(piperidin-1-yl)phenyl](5-methylfuran-2-yl)methyl}acetamide]: the melting point came out at 102 °C.

For the compound `Cc1ccc(C(NC(=O)Cc2cnc(N3CCS(=O)(=O)CC3)nc2)c2ccc(C)o2)c(C(F)(F)F)c1` (stereo not drawn) (as salt: HCl) [Cpd. 33, 2-[2-(1,1-dioxo-1-thiomorpholin-4-yl)pyrimidin-5-yl]-N-{[4-methyl-2-(trifluoromethyl)phenyl](5-methylfuran-2-yl)methyl}acetamide], the melting point came to 224 °C.

Compound `COc1ccc(C(NC(=O)Cc2cnc(N3CCS(=O)(=O)CC3)nc2)c2ccc(C)o2)c(N2CCCCCC2)c1` (stereo not drawn) (as salt: HCl) [Cpd. 45, N-{[2-(azepan-1-yl)-4-methoxyphenyl](5-methylfuran-2-yl)methyl}-2-[2-(1,1-dioxo-1-thiomorpholin-4-yl)pyrimidin-5-yl]acetamide] returned a melting point of 106 °C.

The compound `COc1ccc(C(NC(=O)C2(c3ccc(N4CCS(=O)(=O)CC4)cc3)CC2)c2ccc(C)o2)c(N2CCCCCC2)c1` (stereo not drawn) (as salt: HCl) [Cpd. 46, N-{[2-(azepan-1-yl)-4-methoxyphenyl](5-methylfuran-2-yl)methyl}-1-[4-(1,1-dioxo-1-thiomorpholin-4-yl)phenyl]cyclopropane-1-carboxamide] came in with a melting point of 90 °C.

In the case of `Cc1ccc(C(NC(=O)Cc2ccc(N3CCS(=O)(=O)CC3)c(C)c2)c2ccc(C)o2)c(N2CCCCC2)c1` (stereo not drawn) (as salt: HCl) [Cpd. 12, 2-[4-(1,1-dioxo-1-thiomorpholin-4-yl)-3-methylphenyl]-N-{[4-methyl-2-(piperidin-1-yl)phenyl](5-methylfuran-2-yl)methyl}acetamide], the melting point is 97 °C.

In turn, `Cc1ccc(C(NC(=O)C2(c3ccc(N4CCS(=O)(=O)CC4)cc3)CCC2)c2ccc(C)o2)c(N2CCCCC2)c1` (stereo not drawn) (as salt: HCl) [Cpd. 55, 1-[4-(1,1-dioxo-1-thiomorpholin-4-yl)phenyl]-N-{[4-methyl-2-(piperidin-1-yl)phenyl](5-methylfuran-2-yl)methyl}cyclobutane-1-carboxamide] returned a melting point of 87 °C.

Regarding `O=C(Cc1cc(N2CCS(=O)(=O)CC2)ccc1F)NC(c1ccccc1)c1ccccc1N1CCCCC1` (stereo not drawn) (as salt: HCl) [Cpd. 3, 2-[5-(1,1-dioxo-1-thiomorpholin-4-yl)-2-fluorophenyl]-N-{phenyl[2-(piperidin-1-yl)phenyl]methyl}acetamide], the melting point was 184 °C.

Compound `Cc1ccc(C(NC(=O)Cc2cnc(N3CCS(=O)(=O)CC3)nc2)c2ccc(Cl)cc2Cl)o1` (stereo not drawn) (as salt: HCl) [Cpd. 50, N-[(2,4-dichlorophenyl)(5-methylfuran-2-yl)methyl]-2-[2-(1,1-dioxo-1-thiomorpholin-4-yl)pyrimidin-5-yl]acetamide] had a melting point of 215 °C.

Compound `Cc1ccc(C(NC(=O)Cc2cc(N3CCS(=O)(=O)CC3)ccc2F)c2ccccc2)c(N2CCOCC2)c1` (stereo not drawn) (as salt: HCl) [Cpd. 4, 2-[5-(1,1-dioxo-1-thiomorpholin-4-yl)-2-fluorophenyl]-N-{[4-methyl-2-(morpholin-4-yl)phenyl](phenyl)methyl}acetamide] registered a melting point of 207 °C.

As for `COc1ccc(C(NC(=O)C2(c3cnc(N4CCS(=O)(=O)CC4)nc3)CC2)c2ccc(C)o2)c(C)c1` (stereo not drawn) (as salt: HCl) [Cpd. 57, 1-[2-(1,1-dioxo-1-thiomorpholin-4-yl)pyrimidin-5-yl]-N-[(4-methoxy-2-methylphenyl)(5-methylfuran-2-yl)methyl]cyclopropane-1-carboxamide], the melting point was found to be 101 °C.

Compound `Cc1ccc(C(NC(=O)Cc2ccc(N3CCS(=O)(=O)CC3)cc2C)c2ccc(C)o2)c(Br)c1` (stereo not drawn) (as salt: HCl) [Cpd. 21, N-[(2-bromo-4-methylphenyl)(5-methylfuran-2-yl)methyl]-2-[4-(1,1-dioxo-1-thiomorpholin-4-yl)-2-methylphenyl]acetamide] returned a melting point of 173 °C.

In the case of `Cc1ccc(C(NC(=O)Cc2ccc(N3CCS(=O)(=O)CC3)cc2)c2ccc(C)o2)c(C(F)(F)F)c1` (stereo not drawn) (as salt: HCl) [Cpd. 24, 2-[4-(1,1-dioxo-1-thiomorpholin-4-yl)phenyl]-N-{[4-methyl-2-(trifluoromethyl)phenyl](5-methylfuran-2-yl)methyl}acetamide], the melting point worked out at 90 °C.

Consider `Cc1ccc(C(NC(=O)Cc2cnc(N3CCS(=O)(=O)CC3)nc2)c2ccc(C)o2)c(Br)c1` (stereo not drawn) (as salt: HCl) [Cpd. 34, N-[(2-bromo-4-methylphenyl)(5-methylfuran-2-yl)methyl]-2-[2-(1,1-dioxo-1-thiomorpholin-4-yl)pyrimidin-5-yl]acetamide], for which the melting point is 199 °C.
